Values of other authors as cited in patent publication EP0884997B1, “COMPOSITIONS CONTAINING AN ANTIFUNGAL AND A SULFUR COMPOUND” (JANSSEN PHARMACEUTICA N.V., priority 1996, dated 1997).

Settings: prior art medicated shampoos, dandruff patients

S=[Se]=S [selenium sulfide]
number of patients not responding to particular medicated shampoo: up to 40%

CC(=O)N1CCN(c2ccc(OCC3COC(Cn4ccnc4)(c4ccc(Cl)cc4Cl)O3)cc2)CC1 (centres unmarked) [ketoconazole]
number of patients not responding to particular medicated shampoo: up to 30%
